Experimental findings from patent US7605156B2, “Methods for the use of inhibitors of cytosolic phospholipase A2” (Wyeth, priority 2001, dated 2009) are described below.

One data set relates to ApoE KO mice. Kind of data set: ApoE knockout mouse model of atherosclerosis. The data set is classed as in vivo. The conditions noted are these: 3.3 mg/g in chow, 20 weeks.
The next data set concerns B6 mice. Put plainly: Experimental autoimmune encephalomyelitis (EAE), animal model of multiple sclerosis. The data set is classed as in vivo. The conditions noted are these: orally, 100 mg/kg, twice/day. How it is done:
Six groups of B6 mice were immunized with MOG/CFA and injected with pertussis toxin to induce experimental autoimmune encephalomyelitis (EAE), an animal model of Multiple sclerosis. […] Another three groups of mice were treated with vehicle, Compound A or Compound B starting on the day of EAE onset (day 15) (orally, 100 mg/kg, twice/day). […] The results are shown in FIG. 1, wherein mean clinical score is a mean of clinical evaluation of each animal for that particular day. Animals are scored as follows: • 0 no clinical signs of EAE (no paralysis) • 1—paralysis of tail • 2—paralysis of tail and partial hind leg paralysis • 3—paralysis of tail And complete hind leg paralysis • 4—paralysis of tail, complete hind leg paralysis and a partial front leg paralysis • 5—moribund animal (all four limbs paralyzed, lack of responsiveness, these mice were immediately euthanized).

A further data set has as its target T1, cPLA2 (Homo sapiens, UniProt P47712).
T1 sequence (P47712 1-749): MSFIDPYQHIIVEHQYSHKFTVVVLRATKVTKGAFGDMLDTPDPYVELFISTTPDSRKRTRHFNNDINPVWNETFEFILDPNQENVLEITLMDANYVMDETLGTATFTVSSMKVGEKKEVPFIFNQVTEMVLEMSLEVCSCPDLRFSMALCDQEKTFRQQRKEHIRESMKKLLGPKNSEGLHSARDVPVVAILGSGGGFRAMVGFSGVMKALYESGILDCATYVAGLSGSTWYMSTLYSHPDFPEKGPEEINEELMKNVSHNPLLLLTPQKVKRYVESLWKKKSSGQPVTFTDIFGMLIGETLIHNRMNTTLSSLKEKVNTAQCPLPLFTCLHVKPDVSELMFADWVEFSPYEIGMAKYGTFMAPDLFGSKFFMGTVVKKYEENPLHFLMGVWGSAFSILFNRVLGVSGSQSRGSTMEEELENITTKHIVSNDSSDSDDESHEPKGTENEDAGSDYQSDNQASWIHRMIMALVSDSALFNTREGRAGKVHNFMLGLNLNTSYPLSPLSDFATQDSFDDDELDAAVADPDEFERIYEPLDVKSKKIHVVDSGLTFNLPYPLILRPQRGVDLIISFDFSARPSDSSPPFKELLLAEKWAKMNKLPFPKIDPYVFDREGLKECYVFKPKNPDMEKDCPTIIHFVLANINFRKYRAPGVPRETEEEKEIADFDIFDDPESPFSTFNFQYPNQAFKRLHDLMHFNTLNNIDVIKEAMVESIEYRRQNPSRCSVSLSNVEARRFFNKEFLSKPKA
Kind of data set: Coumarine assay (hydrolysis of 7-hydroxycoumarinyl 6-heptenoate). The data set is classed as biochemical. The conditions noted are these: 60 μM 7-hydroxycoumarinyl 6-heptenoate, pH 7.5; read-out: Coumarin IC50.

As for `O=C(O)c1ccc(CCCc2c(CCNS(=O)(=O)Cc3ccc(Cl)c(Cl)c3)n(C(c3ccccc3)c3ccccc3)c3ccc(Cl)cc23)cc1` [Example 44], the “atherosclerotic plaque burden at the aortic sinus” value with ApoE KO mice worked out at 282697±146462 μm^2. Also, the “decrease of atherosclerotic plaque burden at the aortic sinus” value in the data set on ApoE KO mice (vs control animals, p<0.001) is recorded as 45.6%.

For `O=C(O)c1ccc(OCCc2c(CCNS(=O)(=O)Cc3ccc(Cl)c(Cl)c3)n(C(c3ccccc3)c3ccccc3)c3ccc(Cl)cc23)cc1` [Example 10, 4-{2-[1-Benzhydryl-5-chloro-2-(2-{[(3,4-dichlorobenzyl)sulfonyl]amino}-ethyl)-1H-indol-3-yl]ethoxy}benzoic acid], the “EAE clinical score: prevention of EAE” value in the data set on B6 mice (from the day of immunization) is “prevent EAE”. Moreover, the “EAE clinical score: clinical severity of EAE” value in the data set with B6 mice (starting on the day of EAE onset (day 15)) was “reduce clinical severity of EAE”.

In turn, `O=C(O)c1ccc(OCCc2c(CCNS(=O)(=O)Cc3ccc(Cl)c(Cl)c3)n(C(c3ccccc3)c3ccccc3)c3ccc(Cl)cc23)cc1F` [Example 296, 4-{2-[1-benzhydryl-5-chloro-2-(2-{[(3,4-dichlorobenzyl)sulfonyl]amino}ethyl)-1H-indol-3-yl]ethoxy}-2-fluorobenzoic acid] registered a melting point of 117 to 119 °C. Besides, the IC50 on cPLA2 was 320 nM.

As for `CC(C)(Cc1ccc(S(=O)(=O)CCc2c(CCNS(=O)(=O)Cc3ccc(Cl)c(Cl)c3)n(C(c3ccccc3)c3ccccc3)c3ccc(Cl)cc23)cc1)C(=O)O` [Example 298, 3-[4-({2-[1-benzhydryl-5-chloro-2-(2{[(3,4-dichlorobenzyl)sulfonyl]amino}ethyl)-1H-indol-3-yl]ethyl}sulfonyl)phenyl]-2,2-dimethylpropanoic acid], the melting point is 207 to 208 °C. Besides, on cPLA2, the half-maximal inhibitory concentration (IC50) came to 190 nM.

`O=C(O)c1ccc(OCCc2c(CCNS(=O)(=O)Cc3ccccc3Cl)n(C(c3ccccc3)c3ccccc3)c3ccc(Cl)cc23)cc1F` [Example 297, 4-{2-[1-benzhydryl-5-chloro-2-(2-{[(2-chlorobenzyl)sulfonyl]amino}ethyl)-1H-indol-3-yl]ethoxy}-2-fluorobenzoic acid] gave a melting point of 132 to 135 °C. Besides, the IC50 at cPLA2 stood at 300 nM.

As for `O=C(O)c1ccc(OCCc2c(CCNS(=O)(=O)c3ccc(Cl)cc3Cl)n(C(c3ccccc3)c3ccccc3)c3ccc(Cl)cc23)cc1` [Example 159, 4-{2-[1-benzhydryl-5-chloro-2-(2-{[(2,4-dichlorophenyl)sulfonyl]amino}ethyl)-1H-indol-3-yl]ethoxy}benzoic acid], the IC50 at cPLA2 came to 650 nM.

Turning to `CS(=O)(=O)c1ccccc1S(=O)(=O)NCCc1c(CCCc2ccc(C(=O)O)cc2)c2cc(Cl)ccc2n1C(c1ccccc1)c1ccccc1` [Example 204, 4-(3-{1-Benzhydryl-5-chloro-2-[2({[2-(methylsulfonyl)phenyl]sulfonyl}amino)ethyl]-1H-indol-3-yl}propyl)benzoic acid], the half-inhibitory concentration (IC50) at cPLA2 came to 200 nM.

As to `O=C(O)c1ccc(OCCc2c(CCNS(=O)(=O)c3ccc(Cl)c4nonc34)n(C(c3ccccc3)c3ccccc3)c3ccc(Cl)cc23)cc1` [Example 174, 4-{2-[1-benzhydryl-5-chloro-2-(2-{[(7-chloro-2,1,3-benzoxadiazol-4-yl)sulfonyl]amino}ethyl)-1H-indol-3-yl]ethoxy}benzoic acid], on cPLA2, the half-inhibitory concentration (IC50) worked out at 1100 nM.

For `Cc1ccccc1S(=O)(=O)NCCc1c(CCOc2ccc(C(=O)O)cc2)c2cc(Cl)ccc2n1C(c1ccccc1)c1ccccc1` [Example 233, 4-{2-[1-benzhydryl-5-chloro-2-(2-{[(2-methylphenyl)sulfonyl]amino}ethyl)-1H-indol-3-yl]ethoxy}benzoic acid], the half-inhibitory concentration (IC50) at cPLA2 was 340 nM.

As for `O=C(O)c1ccc(OCCc2c(CCNS(=O)(=O)c3ccccc3-c3ccccc3)n(C(c3ccccc3)c3ccccc3)c3ccc(Cl)cc23)cc1` [Example 164, 4-[2-(1-benzhydryl-2-{2-[(1,1′-biphenyl-2-ylsulfonyl)amino]ethyl}-5-chloro-1H-indol-3-yl)ethoxy]benzoic acid], the IC50 on cPLA2 amounted to 200 nM.

For the compound `O=C(O)c1ccc(OCCc2c(CCNS(=O)(=O)c3c(F)cccc3C(F)(F)F)n(C(c3ccccc3)c3ccccc3)c3ccc(Cl)cc23)cc1` [Example 269], on cPLA2, the IC50 is 150 nM.

Regarding `O=C(O)c1ccc(CCCc2c(CCNS(=O)(=O)c3c(Cl)cc(Cl)cc3Cl)n(C(c3ccccc3)c3ccccc3)c3ccc(Cl)cc23)cc1` [Example 154, 4-{3-[1-benzhydryl-5-chloro-2-(2-([(2,4,6-trichlorophenyl)sulfonyl]amino}ethyl)-1H-indol-3-yl]propyl}benzoic acid], at cPLA2, the IC50 was 350 nM.

As to `COc1ccc(S(=O)(=O)NCCc2c(CCOc3ccc(C(=O)O)cc3)c3cc(Cl)ccc3n2C(c2ccccc2)c2ccccc2)c2nonc12` [Example 175, 4-{2-[1-benzhydryl-5-chloro-2-(2-{[(7-methoxy-2,1,3-benzoxadiazol-4-yl)sulfonyl]amino}ethyl)-1H-indol-3-yl]ethoxy}benzoic acid], the IC50 on cPLA2 came to 370 nM.

For `O=C(O)c1ccc(CCCc2c(CCNS(=O)(=O)c3ccc(Cl)cc3Cl)n(C(c3ccccc3)c3ccccc3)c3ccc(Cl)cc23)cc1` [Example 152, 4-{3-[1-benzhydryl-5-chloro-2-(2-{[(2,4-dichlorophenyl)sulfonyl]-amino}ethyl)-1H-indol-3-yl]propyl}benzoic acid], the IC50 on cPLA2 is 320 nM.

`O=C(O)c1ccc(OCCc2c(CCNS(=O)(=O)CSc3ccc(F)c(Cl)c3)n(C(c3ccccc3)c3ccccc3)c3ccc(Cl)cc23)cc1` [Example 221, 4-[2-(1-benzhydryl-5-chloro-2-{2-[({[(3-chloro-4-fluorophenyl)thio]methyl}sulfonyl)amino]ethyl}-1H-indol-3-yl)ethoxy]benzoic acid]: at cPLA2, the 50% inhibitory concentration (IC50) was 500 nM.
